Laboratory results taken from US6908922B2, “Linear cyclic ureas” (Les Laboratoires Servier, priority 1999, dated 2005).

How the values were obtained:
Assay type in all cases: cell-based
[1] = system: thoracic aorta rings of a Wistar rat; assay: Vascular protective effects with respect to endothelial dysfunction caused by an inhibitor of NOS (ACh relaxation of aortic rings in presence of LNA); settings: LNA 3×10^−7M, difference in maximum ACh relaxation with/without product
Experimental: Under standard in vitro conditions, relaxation of aortic rings caused by acetylcholine (ACh), which relaxation is entirely dependent on the presence of endothelium, is the reflection of the production of NO (stimulated by ACh), which by diffusing to smooth muscle cells brings about arterial relaxation (Nature, 1980, 288, 373). The compounds of the invention were tested in respect of two models involving two different mechanisms implicated in the endothelial dysfunction observed in pathology: • the first model consists of causing inhibition of the relaxation due to ACh by blocking the enzymatic activity (endothelial NOS) responsible for the production of NO; • the second model consists of causing oxidative stress in vitro using an enzymatic system that generates O2^− (xanthine oxidase—XO and hypoxanthine—Hypo).
The thoracic aorta of a Wistar rat (325-375 g), anaesthetised by the intraperitoneal route using pentobarbital sodium (30 mg/kg), is removed and dissected into rings having a length of 3 mm. Each ring is suspended from an isometric tension sensor connected to a recording system and the initial tension applied is 2.5 g. The physiological solution used, which is thermostatically maintained at 37° C. and oxygenated (95% O2+5% CO2), comprises (in mM): NaCl 112.0; KCl 5.0; CaCl2 2.5; KH2PO4 1.0; MgSO4 1.2; NaHCO3 25.0; glucose 11.5; Ca-EDTA 0.016.
After a 90-minute stabilisation period, the preparations are contracted using phenylephrine (PHE 10^−6M) and relaxed by adding 10^−5M of acetylcholine in order to verify the integrity of the endothelial layer. If that is confirmed, the preparations are rinsed and a concentration of the product under test is added to the medium followed by 3×10^−7M of N^G-nitro-L-arginine (LNA). The preparations are again contracted using phenylephrine and, after 30 minutes, the relaxations due to acetylcholine (ACh-10^−8M to 10^−5M) are assessed in the presence of indomethacin (10^−5M).
The relaxation values are expressed as a percentage relative to the maximum contraction caused by PHE. […]

[2] = system: rat aortic rings; assay: Assessment of aortic production of cGMP stimulated by ACh in the presence of LNA (radioimmunoassay); settings: compound at 10^−7M, 30-minute incubation; ACh 10^−5M 1 minute; LNA 3×10^−6M; isobutylmethylxanthine 10^−5M
Experimental: By diffusing to the smooth muscle cells, the NO produced by the endothelial cells activates soluble guanylate cyclase, which brings about an increase in cyclic GMP, which is responsible for relaxation.
The rat aortic rings are prepared as previously. The effects of 30-minute incubation of compounds of the invention at different concentrations are assessed on the production of cGMP stimulated by ACh (10^−5M-1 minute) in the presence of LNA (3×10^−6M). The said experiments are carried out in the presence of isobutylmethylxanthine (10^−5M) in order to avoid degradation of the cGMP by phosphodiesterases. The rings are frozen in liquid nitrogen and maintained at −80° C. until the assay is carried out. The cGMP content is assessed by radioimmunoassay and expressed in relation to the amount of proteins contained in the tissue (assay by the Bradford method).

[3] = system: aortic rings of New Zealand rabbits; assay: Protective vascular effects with respect to endothelial dysfunction caused by a system generating O2^− (XO-Hypo), aortic rings; settings: compound at 3×10^−8M; rabbit aortic rings; XO 3 mU/ml, Hypo 10^−4M

SMILES: O=C(NCCN1CCC(COc2ccccc2)CC1)N1CCc2ccccc21 [Example 35, N-{2-[4-(Phenoxymethyl)-1-piperidyl]ethyl}-1-indolinecarboxamide]
- inhibition of the endothelial dysfunction caused by LNA ([1]; compound at 3×10^−8M): 26%
- inhibition of the endothelial dysfunction caused by LNA ([1]; compound at 10^−7M): 29%
- inhibition of the endothelial dysfunction caused by LNA ([1]; compound at 10^−8M): 8%
- increase in the production of cGMP stimulated by ACh in the presence of LNA [2]: 28.1%
- inhibition of the endothelial dysfunction caused by the XO-Hypo combination [3]: 17%
